Activity, viability and Kb data for 6 compounds are collected here from ChEMBL document CHEMBL1949663, “Effective and reversible DNA condensation induced by bifunctional molecules containing macrocyclic polyamines and naphthyl moieties” (Bioorg Med Chem, 2012).

The source made the active and inactive calls. The rule behind the calls is not given here.

Series [1] relates to Nucleic Acid. In words: Induction of Escherichia coli pUC18 DNA condensation at 300 uM after 5 mins by agarose gel electrophoresis. The series is classed as nucleic-acid assay.
Series [2] in a line: Cytotoxicity against human T98G cells assessed as cell viability at 120 uM after 24 hrs by MTT assay. The series is classed as cell-based. The conditions noted are these: read-out: Activity. On the technique in general: Tetrazolium assays rely on reduction of a dye to a coloured formazan, in cell work by metabolically active cells.
The subject of series [3] is Nucleic Acid. In words: Induction of Escherichia coli pUC18 DNA condensation at 120 uM after 5 mins by agarose gel electrophoresis. The series is classed as nucleic-acid assay.
Series [4] deals with Nucleic Acid. The experiment in a line: Intercalation at calf thymus DNA assessed as increase in viscosity by viscosity titration assay. The series is classed as nucleic-acid assay. The note with it: Bos taurus.
Series [5] has as its system Nucleic Acid. The experiment in a line: Induction of Escherichia coli pUC18 DNA condensation assessed as hydrodynamic diameter at 120 uM after 5 mins by dynamic light scattering analysis. The series is classed as nucleic-acid assay.
A short description of series [6]: Cytotoxicity against human HepG2 cells assessed as cell viability at 120 uM after 24 hrs by MTT assay. The series is classed as cell-based. The note with it: read-out: Activity.
Series [7] has as its system Nucleic Acid. The experiment in a line: Induction of Escherichia coli pUC18 DNA condensation at 80 uM after 5 mins by agarose gel electrophoresis in presence of 10 to 400 mM NaCl. The series is classed as nucleic-acid assay.
Series [8] deals with Nucleic Acid. The experiment in a line: Reversible condensation of Escherichia coli pUC18 DNA assessed as release of condensed DNA at 120 uM incubated for 5 mins followed by addition of […] NaCl by agarose gel electrophoresis. The series is classed as nucleic-acid assay.
In series [9] the test system is Nucleic Acid. The experiment in a line: Induction of Escherichia coli pUC18 DNA condensation assessed as hydrodynamic diameter at 60 uM after 5 mins by dynamic light scattering analysis. The series is classed as nucleic-acid assay.
Series [10] concerns Nucleic Acid. The experiment in a line: Binding affinity to calf thymus DNA assessed as fluorescence quenching after 2 mins by ethidium bromide displacement assay. The series is classed as nucleic-acid assay. The conditions noted are these: Bos taurus.
The subject of series [11] is Nucleic Acid. In words: Induction of Escherichia coli pUC18 DNA condensation assessed as diameter of DNA nano particles at 120 uM after 5 mins by atomic force microscopy. The series is classed as nucleic-acid assay.
The subject of series [12] is Nucleic Acid. The experiment in a line: Induction of Escherichia coli pUC18 DNA condensation assessed as diameter of DNA nano particles at 60 uM after 5 mins by atomic force microscopy. The series is classed as nucleic-acid assay.
A further series has as its system HepG2. The experiment in a line: Cytotoxicity against human HepG2 cells at 30 to 120 uM after 24 hrs by MTT assay. The series is classed as cell-based. The conditions noted are these: hepg2, 24 h.
The next series has as its system T98G. In words: Cytotoxicity against human T98G cells at 30 to 120 uM after 24 hrs by MTT assay. The series is classed as cell-based.
The test system of series [13] is Nucleic Acid. The experiment in a line: Induction of Escherichia coli pUC18 DNA condensation at above 120 uM after 5 mins by agarose gel electrophoresis. The series is classed as nucleic-acid assay.

In the case of `C1CNCCCN(CCCN2CCCNCCCNCCC2)CCCNC1`, the result with Nucleic Acid [1] was inactive.
In the case of `c1ccc2c(CC(Cn3cc(CN4CCCNCCCNCCC4)nn3)Cn3cc(CN4CCCNCCCNCCC4)nn3)cccc2c1`, the viability at 24 h, 120 µM in [2] is 88%; in [6], 64%. The result in the series on Nucleic Acid [3] and with Nucleic Acid [8] was Active. The result in the series on Nucleic Acid [4] and with Nucleic Acid [7] was inactive. Moreover, the Activity in the series on Nucleic Acid [5] was 222 nm; with Nucleic Acid [9] it was 181 nm; in the series on Nucleic Acid [11], 56 nm; with Nucleic Acid [12] it was 49 nm. The Kb in the series on Nucleic Acid [10] amounted to 0.98 ×10⁵ /M.
For the compound `c1ccc2c(CC(CN3CCCNCCCNCCC3)CN3CCCNCCCNCCC3)cccc2c1`, the Activity entry with HepG2 was “Toxic”; in the series with Nucleic Acid [5] it was 146 nm; with Nucleic Acid [9], 105 nm; in the series on T98G it was “Toxic”; with Nucleic Acid [11], 55 nm; in the series with Nucleic Acid [12] it was 47 nm. Also, the result with Nucleic Acid [3] and in the series on Nucleic Acid [8] was Active. The outcome in the series with Nucleic Acid [4] and in the series on Nucleic Acid [7] was inactive. In addition, the Kb with Nucleic Acid [10] was 1.2 ×10⁵ /M.
As to `c1c(CN2CCCNCCCNCCC2)nnn1CCCn1cc(CN2CCCNCCCNCCC2)nn1`, the outcome in the series with Nucleic Acid [1] was inactive.
Still for that read-out and setting: to `c1ccc2c(CN3CCCNCCCNCCC3)cccc2c1` belongs “inactive”.
Take `c1ccc2c(CCCN3CCCNCCCNCCC3)cccc2c1`: the outcome in the series with Nucleic Acid [13] was Active.
